Key:
Assay type in all cases: functional
Tetranychus cinnabarinus [1] = assay: Insecticidal activity against Tetranychus cinnabarinus (carmine spider mite) infested on Sieva bean plants leaves exposed to compound formulation at 50 mg/kg assessed as insect mortality measured 2 days post compound treatment; conditions: 48 h
Tetranychus cinnabarinus [2] = assay: Insecticidal activity against Tetranychus cinnabarinus (carmine spider mite) infested on Sieva bean plants leaves exposed to compound formulation at 100 mg/kg assessed as insect mortality measured 2 days post compound treatment; conditions: 48 h
Mythimna separata [3] = assay: Insecticidal activity against Mythimna separata (Oriental armyworm) fourth-instar larvae infested compound pre-treated corn leaves assessed as insect mortality at 20 mg/kg measured 2 days post compound treatment
Tetranychus cinnabarinus [4] = assay: Insecticidal activity against Tetranychus cinnabarinus (carmine spider mite) infested on Sieva bean plants leaves exposed to compound formulation at 200 mg/kg assessed as insect mortality measured 2 days post compound treatment; conditions: 48 h
Mythimna separata [5] = assay: Insecticidal activity against Mythimna separata (Oriental armyworm) fourth-instar larvae infested compound pre-treated corn leaves assessed as insect mortality at 10 mg/kg measured 2 days post compound treatment
Culex pipiens pallens [6] = assay: Insecticidal activity against Culex pipiens pallens (mosquito) fourth-instar larvae assessed as insect mortality at 0.25 mg/kg measured 2 days post compound treatment; conditions: 48 h
Culex pipiens pallens [7] = assay: Insecticidal activity against Culex pipiens pallens (mosquito) fourth-instar larvae assessed as insect mortality at 0.1 mg/kg measured 2 days post compound treatment; conditions: 48 h
Culex pipiens pallens [8] = assay: Insecticidal activity against Culex pipiens pallens (mosquito) fourth-instar larvae assessed as insect mortality at 0.5 mg/kg measured 2 days post compound treatment; conditions: 48 h
Mythimna separata [9] = assay: Insecticidal activity against Mythimna separata (Oriental armyworm) fourth-instar larvae infested compound pre-treated corn leaves assessed as insect mortality at 5 mg/kg measured 2 days post compound treatment

Row | SMILES | mortality at 50 mg/kg (Tetranychus cinnabarinus [1]) | mortality at 100 mg/kg (Tetranychus cinnabarinus [2]) | mortality at 20 mg/kg (Mythimna separata [3]) | mortality at 200 mg/kg (Tetranychus cinnabarinus [4]) | mortality at 10 mg/kg (Mythimna separata [5]) | mortality at 0.25 mg/kg (Culex pipiens pallens [6]) | mortality at 0.1 mg/kg (Culex pipiens pallens [7]) | mortality at 0.5 mg/kg (Culex pipiens pallens [8]) | mortality at 5 mg/kg (Mythimna separata [9])
1 | N#Cc1c(Br)c(C(F)(F)F)n(COC(=O)C(=O)OCC(F)(F)F)c1-c1ccc(Cl)cc1 | 92% | 95% | 70% | 100% | 10% | 30% | 0% | 100% | 
2 | COCCOC(=O)C(=O)OCn1c(-c2ccc(Cl)cc2)c(C#N)c(Br)c1C(F)(F)F | 94% | 95% | 100% | 100% | 20% | 90% | 20% | 100% | 
3 | CCOCCOC(=O)C(=O)OCn1c(-c2ccc(Cl)cc2)c(C#N)c(Br)c1C(F)(F)F |  |  | 100% |  | 20% | 100% | 80% | 100% | 
4 | CCCNC(=O)C(=O)OCn1c(-c2ccc(Cl)cc2)c(C#N)c(Br)c1C(F)(F)F |  |  | 100% |  | 25% | 100% | 80% | 100% | 
5 | CC(C)NC(=O)C(=O)OCn1c(-c2ccc(Cl)cc2)c(C#N)c(Br)c1C(F)(F)F | 87% | 95% | 100% | 100% | 20% | 80% | 30% | 100% | 
6 | CCCCNC(=O)C(=O)OCn1c(-c2ccc(Cl)cc2)c(C#N)c(Br)c1C(F)(F)F |  | 0% | 100% | 48% | 0% | 90% | 20% | 100% | 
7 | CCC(C)NC(=O)C(=O)OCn1c(-c2ccc(Cl)cc2)c(C#N)c(Br)c1C(F)(F)F (stereo unspecified) |  |  | 100% |  | 30% |  |  |  | 
8 | CC(C)(C)NC(=O)C(=O)OCn1c(-c2ccc(Cl)cc2)c(C#N)c(Br)c1C(F)(F)F |  |  | 100% |  | 20% | 30% | 10% | 100% | 
9 | COC(=O)C(=O)OCn1c(-c2ccc(Cl)cc2)c(C#N)c(Br)c1C(F)(F)F |  |  | 100% |  | 15% |  |  |  | 
10 | CCOC(=O)C(=O)OCn1c(-c2ccc(Cl)cc2)c(C#N)c(Br)c1C(F)(F)F |  |  | 100% |  | 80% |  |  |  | 
11 | CCCOC(=O)C(=O)OCn1c(-c2ccc(Cl)cc2)c(C#N)c(Br)c1C(F)(F)F |  |  | 100% | 100% | 100% | 100% | 10% | 100% | 0%
12 | CC(C)OC(=O)C(=O)OCn1c(-c2ccc(Cl)cc2)c(C#N)c(Br)c1C(F)(F)F |  |  | 100% | 100% | 70% | 100% | 20% | 100% | 
13 | CCCCOC(=O)C(=O)OCn1c(-c2ccc(Cl)cc2)c(C#N)c(Br)c1C(F)(F)F |  |  | 100% |  | 100% |  |  |  | 
14 | CCOCn1c(-c2ccc(Cl)cc2)c(C#N)c(Br)c1C(F)(F)F [CHLORFENAPYR] | 93% | 97% | 100% | 100% | 100% | 100% | 100% | 100% | 0%
